Assay results taken from patent US20240383922A1, “KRAS Modulating Compounds” (Gilead Sciences, Inc., priority 2023, published 2024).
Read-outs that look alike come from different tables or passages of the source.

Experiments:
[1] = target: GDP-loaded wild-type KRAS (WT) (Homo sapiens (Human), UniProt P01116); test: KRAS (GDP) biochemical TR-FRET probe displacement assay, WT KRAS; type: binding; settings: 2 hours
Description: (§1) KRAS (GDP) Biochemical Assays:
(§2) Compounds were serially diluted (1:3) in DMSO. The LabCyte ECHO Acoustic dispenser was used to pre-spot the assay plates (384-well Non-Binding Surface plates, Corning, Catalog #3824) with 50 nL of compound. 5 μL of 2× enzyme concentration was added to the pre-spotted plates and incubated for 30 minutes before adding 5 μL of 2× concentration of Eu-streptavidin and Cy-5 labelled probe (10 μL final reaction volume). The plates were incubated at room temperature for 2 hours before measuring TR-FRET ratio (665 nm/615 nm) on the Envision multimode plate reader. The ratios were normalized to a positive (saturating concentration of known inhibitor) and negative (DMSO) control and plotted against the log of compound concentration.

GDP-loaded KRAS-G12C = GDP-loaded KRAS-G12C (Homo sapiens (Human), UniProt P01116, G12C); test: KRAS (GDP) biochemical TR-FRET probe displacement assay, KRAS-G12C; type: binding; settings: 2 hours
GDP-loaded KRAS-G12C, sequence (P01116-2 other isoform, or with tags, fused parts or gaps G12C): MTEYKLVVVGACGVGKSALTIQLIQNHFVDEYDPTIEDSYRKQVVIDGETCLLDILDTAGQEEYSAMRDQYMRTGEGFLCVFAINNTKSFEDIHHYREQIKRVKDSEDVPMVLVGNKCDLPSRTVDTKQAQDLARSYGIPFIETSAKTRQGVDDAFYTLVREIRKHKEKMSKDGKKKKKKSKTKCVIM
Description: as §1, §2

GDP-loaded KRAS-G12V = GDP-loaded KRAS-G12V (Homo sapiens (Human), UniProt P01116, G12V); test: KRAS (GDP) biochemical TR-FRET probe displacement assay, KRAS-G12V; type: binding; settings: 2 hours
GDP-loaded KRAS-G12V, sequence (P01116-2 other isoform, or with tags, fused parts or gaps G12V): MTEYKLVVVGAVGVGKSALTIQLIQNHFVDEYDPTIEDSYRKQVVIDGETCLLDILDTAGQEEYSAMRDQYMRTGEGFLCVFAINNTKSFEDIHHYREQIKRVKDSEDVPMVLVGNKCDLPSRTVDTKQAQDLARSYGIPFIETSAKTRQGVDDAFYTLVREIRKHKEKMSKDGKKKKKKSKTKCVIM
Description: as §1, §2

GDP-loaded KRAS-G12D = GDP-loaded KRAS-G12D (Homo sapiens (Human), UniProt P01116, G12D); test: KRAS (GDP) biochemical TR-FRET probe displacement assay, KRAS-G12D; type: binding; settings: 2 hours
GDP-loaded KRAS-G12D, sequence (P01116-2 other isoform, or with tags, fused parts or gaps G12D): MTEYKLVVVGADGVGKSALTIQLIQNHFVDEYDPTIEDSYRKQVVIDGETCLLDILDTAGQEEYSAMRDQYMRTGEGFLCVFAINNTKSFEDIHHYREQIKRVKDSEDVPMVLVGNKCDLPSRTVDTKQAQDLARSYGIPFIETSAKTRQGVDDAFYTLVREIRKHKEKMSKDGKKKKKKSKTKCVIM
Description: as §1, §2

[2] = system: cellular pERK in Kuramochi (WT KRAS) cell-line; test: Cell based pERK assay (HTRF), Kuramochi; settings: Kuramochi (WT KRAS) cells, 2 hours incubation
How it was run: (§3)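 Cells were seeded overnight (5000 AsPC-1; 7500 MIA-PaCa-2, NCI-H441 or Kuramochi) and then exposed to 1:3 compound dilutions for 2 h at 37 °C. Lysates were read by HTRF phospho-ERK1/2 (665/615 nm ratio) after overnight incubation at room temperature. IC50 came from sigmoidal fits normalized to DMSO and a saturating reference inhibitor.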

[3] = system: cellular pERK in MIA-PaCa-2 (KRAS-G12C) cell-line; test: Cell based pERK assay (HTRF), MIA-PaCa-2; settings: MIA-PaCa-2 (KRAS-G12C) cells, 2 hours incubation, read-out: MIAPaCa2 pERK EC50
How it was run: as §3

[4] = system: cellular pERK in NCI-H441 (KRAS-G12V) cell-line; test: Cell based pERK assay (HTRF), NCI-H441; settings: NCI-H441 (KRAS-G12V) cells, 2 hours incubation
How it was run: as §3

[5] = system: cellular pERK in ASPC-1 (KRAS G12D) cell-line; test: Cell based pERK assay (HTRF), ASPC-1; settings: ASPC-1 (KRAS G12D) cells, 2 hours incubation
How it was run: as §3

GDP-loaded wild-type KRAS (WT), sequence (P01116-2 other isoform, or with tags, fused parts or gaps): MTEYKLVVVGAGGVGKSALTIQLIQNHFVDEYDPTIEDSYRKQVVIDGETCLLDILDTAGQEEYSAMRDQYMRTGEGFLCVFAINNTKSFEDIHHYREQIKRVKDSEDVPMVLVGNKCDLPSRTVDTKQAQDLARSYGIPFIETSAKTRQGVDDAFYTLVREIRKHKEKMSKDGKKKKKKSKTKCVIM

Row | SMILES | IC50 [1] | IC50 (GDP-loaded KRAS-G12C) | IC50 (GDP-loaded KRAS-G12V) | IC50 (GDP-loaded KRAS-G12D) | EC50 [2] | EC50 [3] | EC50 [4] | EC50 ([5]; read-out: AsPC1 pERK EC50) | EC50 ([3]; Homo sapiens) | EC50 ([4]; Homo sapiens) | EC50 ([5]; Homo sapiens, ASPC1)
1 | C#Cc1c(F)ccc2cc(O)cc(-c3nc4c5c(nc(OC[C@@]67CCCN6C[C@H](F)C7)nc5c3F)N3CCOCC[C@@H]3CC4)c12 (single isomer, unassigned) [Example 9-2] | 0.06 nM | 0.06 nM | 0.1 nM | 0.15 nM | 1.59 nM | – | – | – | 0.23 nM | 2.14 nM | 11.7 nM
2 | C#Cc1c(F)ccc2cc(O)cc(-c3nc4c5c(nc(OC[C@@]67CCCN6[C@H](COc6cc(C(F)(F)F)ncn6)CC7)nc5c3F)N3CCCOC[C@@H]3CC4)c12 [Example 6-12] | 0.67 nM | 0.92 nM | 0.22 nM | 0.47 nM | 1.34 nM | – | – | – | 0.149 nM | 0.73 nM | 1.53 nM
3 | C#Cc1c(F)ccc2cc(O)cc(-c3nc4c5c(nc(OC[C@@]67CCCN6[C@H](COc6nccnc6C(F)C(C)F)CC7)nc5c3F)N3CCCOC[C@@H]3CC4)c12 (stereo partly drawn) [Example 6-14] | 0.05 nM | 0.08 nM | 0.09 nM | 0.09 nM | 3.46 nM | – | – | – | 0.32 nM | 2.07 nM | 3.5 nM
4 | C#Cc1c(F)ccc2cccc(-c3nc4c5c(nc(OC[C@@]67CCCN6[C@H](COc6cc(C(F)(F)F)ncn6)CC7)nc5c3F)N3CCCOC[C@@H]3CC4)c12 [Example 6-15] | 67.9 nM | 36.6 nM | 29.2 nM | 38.5 nM | 231 nM | – | – | – | 403 nM | > 749 nM | > 859 nM
5 | C#Cc1c(F)ccc2cc(O)cc(-c3nc4c5c(nc(OC[C@@]67CCCN6C/C(=C\F)C7)nc5c3F)N3CCCOC[C@@H]3CC4)c12 [Example 6-23] | 0.06 nM | 0.05 nM | 0.05 nM | 0.04 nM | 1.14 nM | – | – | – | 0.06 nM | 0.2 nM | 0.44 nM
6 | C#Cc1c(F)ccc2cc(O)cc(C3=C(F)C4N=C(OC[C@@]56CCCN5C[C@H](F)C6)N=C5C4C(=C3F)C(C)=C[C@H]3COCCCN53)c12 (stereo partly drawn) [Example 6-28] | 3.43 nM | 2.53 nM | 2.69 nM | 2.82 nM | 11.7 nM | – | – | – | 2.34 nM | 7.98 nM | 17.1 nM
7 | C#Cc1c(F)ccc2cc(N)cc(-c3nc4c5c(nc(OC[C@@]67CCCN6C[C@H](F)C7)nc5c3F)N3CCCOC[C@@H]3CC4)c12 [Example 7-1, 5-ethynyl-6-fluoro-4-((S)-1-fluoro-12-(((2R,7aS)-2-fluorotetrahydro-1H-pyrrolizin-7a(5H)-yl)methoxy)-4,5,5a,6,9,10-hexahydro-8H-7-oxa-3,10a,11,13-tetraazanaphtho[1,8-ab]heptalen-2-yl) naphthalen-2-amine] | 3.87 nM | 0.9 nM | 1.78 nM | 2.73 nM | 2.09 nM | – | – | – | 4.12 nM | 4.46 nM | 17.9 nM
8 | C#Cc1c(F)ccc2cc(N)cc(-c3nc4c5c(nc(OC[C@@]67CCCN6[C@H](COc6cc(C(F)(F)F)ncn6)CC7)nc5c3F)N3CCCOC[C@@H]3CC4)c12 [Example 7-4] | 2.26 nM | 1.02 nM | 2.01 nM | 4.5 nM | 4.47 nM | – | – | – | 9.04 nM | 8.95 nM | 26.3 nM
9 | C#Cc1c(F)ccc2cc(N)cc(-c3nc4c5c(nc(OC[C@@]67CCCN6[C@H](COc6cc(C(F)(F)F)cnn6)CC7)nc5c3F)N3CCCOC[C@@H]3CC4)c12 [Example 7-5] | 1.8 nM | 0.55 nM | 0.65 nM | 1.76 nM | 1.4 nM | – | – | – | 1.34 nM | 3.48 nM | 21.2 nM
10 | C#Cc1c(F)ccc2cc(N)cc(-c3nc4c5c(nc(OC[C@@]67CCCN6[C@H](COc6nccnc6C(F)F)CC7)nc5c3F)N3CCCOC[C@@H]3CC4)c12 [Example 7-6] | 1.93 nM | 1.09 nM | 1.2 nM | 3.15 nM | 4.17 nM | – | – | – | 3.88 nM | 11.8 nM | 32.1 nM
11 | C#Cc1c(F)ccc2cc(N)cc(-c3c(F)c4c5c(nc(OC[C@@]67CCCN6C[C@H](F)C7)nc5c3F)N3CCCOC[C@@H]3CC4)c12 [Example 7-12] | 30 nM | 4.58 nM | 15.8 nM | 24.6 nM | 7.88 nM | – | – | – | 8.18 nM | 32.6 nM | 104 nM

Next, values leading:

Row | IC50 [1] | IC50 (GDP-loaded KRAS-G12C) | IC50 (GDP-loaded KRAS-G12V) | IC50 (GDP-loaded KRAS-G12D) | EC50 [2] | EC50 [3] | EC50 [4] | EC50 ([5]; read-out: AsPC1 pERK EC50) | EC50 ([3]; Homo sapiens) | EC50 ([4]; Homo sapiens) | EC50 ([5]; Homo sapiens, ASPC1) | SMILES
12 | 5290 nM | 1440 nM | 4960 nM | 17500 nM | > 956 nM | 4640 nM | 7240 nM | 27100 nM | – | – | – | Cc1cc(N)nc(-c2c(Cl)c3c4c(nc(OC[C@@]56CCCN5C[C@H](F)C6)nc4c2F)N2CCCOCC2CC3)c1C(F)(F)F (mixture of isomers) [Example 21-1, 6-(12-chloro-10-fluoro-8-(((2R,7aS)-2-fluorotetrahydro-1H-pyrrolizin-7a(5H)-yl)methoxy)-1,4,5,13,14,14a-hexahydro-3H-[1,4]oxazepino[4′,3′:1,7]azepino[2,3,4-de]quinazolin-11-yl)-4-methyl-5-(trifluoromethyl)pyridin-2-amine]
13 | 69.1 nM | 37.1 nM | 47.7 nM | 56.4 nM | 181 nM | – | – | – | 217 nM | 572 nM | 655 nM | C#Cc1c(F)ccc2cc(O)cc(-c3nc4c5c(nc(OCC6(CN7CCCCC7)CC6)nc5c3F)N3CCCOC[C@@H]3CC4)c12 [Example 15-1, (S)-5-ethynyl-6-fluoro-4-(1-fluoro-12-((1-(piperidin-1-ylmethyl)cyclopropyl)methoxy)-4,5,5a,6,9,10-hexahydro-8H-7-oxa-3,10a,11,13-tetraazanaphtho[1,8-ab]heptalen-2-yl)naphthalen-2-ol]
14 | 0.17 nM | 0.19 nM | 0.2 nM | 0.24 nM | 1.99 nM | – | – | – | 0.28 nM | 0.56 nM | 0.62 nM | C#Cc1c(F)ccc2cccc(-c3nc4c5c(nc(OC[C@@]67CCCN6[C@H](COC(=O)N6CCCCC6)CC7)nc5c3F)N3CCCOC[C@@H]3CC4)c12 [Example 16-2]
15 | 5.56 nM | 3.59 nM | 2.77 nM | 3.27 nM | 3.53 nM | – | – | – | 3.25 nM | 12.8 nM | 14 nM | C#Cc1c(F)ccc2cc(O)cc(-c3nc4c5c(nc(OC[C@@]67CCCN6[C@H](COc6cc(C(F)(F)F)ncn6)CC7)nc5c3F)N3CCCOC[C@@H]3C=C4C)c12 [Example 18-1, 5-ethynyl-6-fluoro-4-((S)-1-fluoro-4-methyl-12-(((3S,7aS)-3-(((6-(trifluoromethyl)pyrimidin-4-yl)oxy)methyl)tetrahydro-1H-pyrrolizin-7a(5H)-yl)methoxy)-5a,6,9,10-tetrahydro-8H-7-oxa-3,10a,11,13-tetraazanaphtho[1,8-ab]heptalen-2-yl)naphthalen-2-ol]
16 | 0.36 nM | 0.49 nM | 0.42 nM | 0.65 nM | 3.63 nM | – | – | – | 0.82 nM | 1.05 nM | 1.39 nM | C#Cc1c(F)ccc2cc(O)cc(-c3nc4c5c(nc(OC[C@@]67CCCN6[C@H](COc6cc(C(F)(F)F)cnn6)CC7)nc5c3F)N3CCCOC[C@@H]3C=C4C)c12 [Example 18-2]
17 | 1.2 nM | 1.83 nM | 1.59 nM | 1.65 nM | 3.16 nM | – | – | – | 0.86 nM | 1.97 nM | 2.31 nM | C#Cc1c(F)ccc2cc(O)cc(-c3nc4c5c(nc(OC[C@@]67CCCN6[C@H](COC(C(F)(F)F)(C(F)(F)F)C(F)(F)F)CC7)nc5c3F)N3CCCOC[C@@H]3CC4)c12 [Example 22-4]
18 | 30.6 nM | 34.7 nM | 12.6 nM | 31 nM | 9.83 nM | – | – | – | 6.69 nM | 37.1 nM | 54.6 nM | C#Cc1c(F)ccc2cc(O)cc(-c3nc4c5c(nc(OCC67CCCN6[C@H](COC(C(F)(F)F)C(F)(F)F)CC7)nc5c3F)N3CCCOCC3CC4)c12 (stereo partly drawn) [Example 22-7]
